As usually defined, the IC50 is the concentration that inhibits the measured activity by half. Low values mean greater potency in that assay, high ones weaker potency in that assay.

Data on two compounds can be found in patent publication US20130231393A1, “USE OF SQUARAMIDE IN THE PREVENTION AND/OR TREATMENT OF ROSACEA” (GALDERMA RESEARCH & DEVELOPMENT, priority 2010, published 2013).

For one assay, the target named is T1, CXCR2 (Homo sapiens, UniProt P25025).
T1 sequence (P25025 1-360): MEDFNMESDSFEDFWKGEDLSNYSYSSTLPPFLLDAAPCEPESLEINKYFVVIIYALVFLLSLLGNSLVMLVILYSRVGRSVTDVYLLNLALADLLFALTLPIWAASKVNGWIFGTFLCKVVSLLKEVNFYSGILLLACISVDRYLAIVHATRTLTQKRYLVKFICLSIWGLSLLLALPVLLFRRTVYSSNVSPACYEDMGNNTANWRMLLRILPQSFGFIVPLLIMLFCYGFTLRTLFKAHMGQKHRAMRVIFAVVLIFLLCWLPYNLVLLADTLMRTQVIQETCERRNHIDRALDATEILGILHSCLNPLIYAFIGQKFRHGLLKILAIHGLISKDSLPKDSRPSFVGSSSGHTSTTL
The assay is described as follows: β-arrestin2 recruitment assay, antagonism of CXCL8 stimulation (PathHunter HEK293 hCXCR2 b-arrestin). The conditions noted are these: PathHunter HEK293 hCXCR2 b-arrestin cells, CXCL8-stimulated. The format is cell-based. The method, then: (§1) Antagonism of CXCL8-Stimulated β-Arrestin2 Recruitment. […] To monitor direct interaction of CXCR2 or CXCR1 with β-arrestin2, we used a β-arrestin2 recruitment assay for CXCR2 or CXCR1 based on enzyme complementation of β-galactosidase (Olson and Eglen, 2007), as established by DiscoveRx Corporation. […] All CXCR2-antagonists are tested in dose-depedant manner (firsty dose 10 μM).
(§2) PathHunter HEK293-hCXCR2 b-arrestin cells or U2OS hCXCR1 b-arrestin cells (both from DiscoveRx Corporation) were plated out overnight at 10,000 cells/well (384-well format) in 50 μl of Opti MEM I+1% bovine serum albumin. Cells were treated with CXR2 antogonist or vehicule (Opti MEM I) and CXCL-8 at the same time for 90 min.; thereafter, 25 μl of PathHunter Detection Reagents (DiscoveRx Corporation) was added. After an incubation of 60 min at room temperature, β-galactosidase-induced luminescence upon β-arrestin-CXCR1/2 interaction was measured in an TopCount Reader (Perkin Elmer). Functional data were evaluated by a nonlinear curve fitting procedure using XLFit4 (IDBS).
A general note: Activated receptors often draw arrestin, which recruitment assays turn into a signal.

A further assay concerns the target T2, CXCR1 (Homo sapiens, UniProt P25024).
T2 construct: β-galactosidase enzyme-complementation fragment (PathHunter system); host or cells: U2OS (U2OS hCXCR1 b-arrestin)
T2 sequence (P25024 1-350): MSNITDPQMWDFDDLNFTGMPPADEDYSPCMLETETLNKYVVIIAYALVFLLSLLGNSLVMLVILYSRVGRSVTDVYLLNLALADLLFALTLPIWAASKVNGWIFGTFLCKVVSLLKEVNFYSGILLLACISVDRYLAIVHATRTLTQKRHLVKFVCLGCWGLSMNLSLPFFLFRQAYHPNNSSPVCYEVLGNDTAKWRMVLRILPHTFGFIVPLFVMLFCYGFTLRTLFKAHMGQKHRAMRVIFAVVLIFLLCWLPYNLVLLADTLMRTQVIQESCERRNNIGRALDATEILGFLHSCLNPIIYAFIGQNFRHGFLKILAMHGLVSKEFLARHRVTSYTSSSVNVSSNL
Briefly: β-arrestin2 recruitment assay, antagonism of CXCL8 stimulation (U2OS hCXCR1 b-arrestin). The format is cell-based. The settings on record: U2OS hCXCR1 b-arrestin cells, CXCL8-stimulated. The method, then:
as §1, §2

Another assay has as its system hairless SKH1 mice. Briefly: RTX-induced vasodilation in a neurogenic skin inflammation model (laser Doppler perfusion imaging). The format is in vivo. The conditions noted are these: capsazepine at 5%, topical; RTX 0.03% on the back of SKH1 mice. The procedure:
The animal model of neurogenic skin inflammation was induced by a unique topical application of resiniferatoxin (RTX), 0.03% on the back of hairless SKH1 mice. RTX is an ultrapotent capsaicin analog and RTX exposure evokes neuropeptides release. Most of these neuropeptides have vasodilatory properties and one component of RTX-induced neurogenic inflammation is the dermal vasodilation. In the present RTX-model, the objective assessment of the skin vasodilation was evaluated by laser Doppler perfusion imaging.
Material and Method: • Measurement of RTX-Induced Vasodilation
Adult female hairless SKH1 mice aged 7-9 weeks are obtained from Charles River (France). Anaesthesia with ketamine/xylazine is performed 10 minutes before treatment and body temperature is maintained at 35° C.-37° C. using an automated heating pad. A skin area of 1.8×1.5 cm on the back of the mouse is divided in two regions of interest. One region is treated with the vehicle, the other one with RTX 0.03%. […] The skin blood perfusion is evaluated every 2 minutes on the back of the mouse with a Laser Doppler perfusion imaging PIM3 (Perimed, France). […] Images are analysed and the yield of two parameters, the erythematous surface and the blood perfusion intensity ratio, is calculated as a relative area of vasodilation (mm^2). […] Results are expressed as mean±SEM. […]

Turning to `CC[C@@H](Nc1c(Nc2cccc(C(=O)N(C)C)c2O)c(=O)c1=O)c1ccccc1` [3-[3,4-Dioxo-2-((R)-1-phenyl-propylamino)-cyclobut-1-enylamino]-2-hydroxy-N,N-dimethyl-benzamide], the IC50 at CXCR2 was found to be 0.007 µM; at CXCR1, 0.148 µM.
Consider `Oc1cc2c(cc1O)CN(C(=S)NCCc1ccc(Cl)cc1)CCC2` [capsazepine], for which the “relative area of vasodilation, AUC decreased by” value in the assay with hairless SKH1 mice was 13%.
